Counter-ions that a name gives are not always drawn.
Target: T1, human Cav2.2 α (α1B) subunit, along with the human β3 and α2δ1 auxiliary subunits (Homo sapiens, UniProt Q00975)
T1 construct: expressed in transfected cells
Assay: hCav2.2 assay, IonWorks planar array electrophysiology in stable HEK293 cell line
Format: cell-based
Conditions: inhibition by 50% of current elicited by the 1st depolarising pulse; HEK293 cells; read-out: tonic pIC50 (converted)
Procedure: Compounds as defined in the first or second aspect may be tested for in vitro biological activity in the hCav2.2 assay in accordance with the following studies:
Stable cell lines expressing the human Cav2.2 α (α1B) subunit, along with the human β3 and α2δ1 auxiliary subunits were created following sequential transfection and selection of human embryonic kidney (HEK293) cells. HEK293 cells were cultured in Dulbecco's modified Eagles media/F12 media (Invitrogen, Cat #041-95750V) containing 10% fetal bovine serum, with added L-glutamine (2 mM; Invitrogen, Cat #25030-024) and non-essential amino acids (5%; Invitrogen, Cat #11140-035). Initially HEK293 cells were transfected with two plasmid vectors for expression of the hCav2.2 α subunit (pCIN5-hCav2.2 which carries a neomycin resistance marker) and the hCav β3 subunit (pCIH-hCav β3 which carries a hygromycin resistance marker). Clonal cell lines were isolated following selection in media supplemented with 0.4 mg ml^−1 Geneticin G418 (Invitrogen, Cat #10131-027) and 0.1 mg ml^−1 hygromycin (Invitrogen, Cat #10687-010). These clonal cell lines were assessed for Cav2.2 α/β3-mediated current expression using the IonWorks planar array electrophysiology technology (described below). A clonal line was identified that gave a reasonable level of functional Cav2.2 α/β3 current expression. This cell line was transfected with a plasmid vector for expression of the human α2δ1 subunit (pCIP-α2δ1 which carries a puromycin resistance marker) and clonal cell lines isolated following selection in media containing 0.62 μg ml^−1 puromycin (Sigma, Cat #P-7255), in addition to 0.4 mg ml^−1 Geneticin G418 and 0.1 mg ml^−1 hygromycin. Several cell lines were identified that gave robust levels of Cav2.2 α/β3/α2δ1-mediated current expression and one of these was selected for compound profiling. Expression of all three subunits within this cell line was continuously maintained by the inclusion of G418 (0.4 mg ml^−1), hygromycin (0.1 mg ml^−1) and puromycin (0.62 μg ml^−1). Cells were maintained at 37° C. in a humidified environment containing 5% CO2 in air. Cells were liberated from the T175 culture flasks for passage and harvesting using TrpLE (Invitrogen, Cat #12604-013).
Cells were grown to 30-60% confluence in T175 flasks and maintained at 30° C. for 24 hrs prior to recording. Cells were lifted by removing the growth media, washing with Ca^2+ free PBS (Invitrogen, Cat #14190-094) and incubating with 3 ml of warmed (37° C.) TrpLE (Invitrogen, Cat #12604-013) for 6 minutes. Lifted cells were suspended in 10 ml of extracellular buffer. Cell suspension was then placed into a 15 ml tube and centrifuged for 2 minutes at 700 rpm. After centrifugation, the supernatant was removed and the cell pellet was resuspended in 4.5 ml of extracellular solution.
Currents were recorded at room temperature (21-23° C.) using the IonWorks planar array electrophysiology technology (Molecular Devices Corp.). Stimulation protocols and data acquisition were carried out using a microcomputer (Dell Pentium 4). In order to determine planar electrode hole resistances (Rp), a 10 mV, 160 ms potential difference was applied across each hole. These measurements were performed before cell addition. After cell addition a seal test was performed prior to antibiotic (amphotericin) circulation to achieve intracellular access. Leak subtraction was conducted in all experiments by applying a 160 ms hyperpolarizing (10 mV) prepulse 200 ms before the test pulses to measure leak conductance. Test pulses stepping from the holding potential (VH) of −90 mV to +10 mV were applied for 20 ms and repeated 10 times at a frequency of 10 Hz. In all experiments, the test pulse protocol was performed in the absence (pre-read) and presence (post-read) of a compound. Pre- and post-reads were separated by a compound addition followed by a 3-3.5 min incubation. […]

T1 sequence (Q00975 whole entry): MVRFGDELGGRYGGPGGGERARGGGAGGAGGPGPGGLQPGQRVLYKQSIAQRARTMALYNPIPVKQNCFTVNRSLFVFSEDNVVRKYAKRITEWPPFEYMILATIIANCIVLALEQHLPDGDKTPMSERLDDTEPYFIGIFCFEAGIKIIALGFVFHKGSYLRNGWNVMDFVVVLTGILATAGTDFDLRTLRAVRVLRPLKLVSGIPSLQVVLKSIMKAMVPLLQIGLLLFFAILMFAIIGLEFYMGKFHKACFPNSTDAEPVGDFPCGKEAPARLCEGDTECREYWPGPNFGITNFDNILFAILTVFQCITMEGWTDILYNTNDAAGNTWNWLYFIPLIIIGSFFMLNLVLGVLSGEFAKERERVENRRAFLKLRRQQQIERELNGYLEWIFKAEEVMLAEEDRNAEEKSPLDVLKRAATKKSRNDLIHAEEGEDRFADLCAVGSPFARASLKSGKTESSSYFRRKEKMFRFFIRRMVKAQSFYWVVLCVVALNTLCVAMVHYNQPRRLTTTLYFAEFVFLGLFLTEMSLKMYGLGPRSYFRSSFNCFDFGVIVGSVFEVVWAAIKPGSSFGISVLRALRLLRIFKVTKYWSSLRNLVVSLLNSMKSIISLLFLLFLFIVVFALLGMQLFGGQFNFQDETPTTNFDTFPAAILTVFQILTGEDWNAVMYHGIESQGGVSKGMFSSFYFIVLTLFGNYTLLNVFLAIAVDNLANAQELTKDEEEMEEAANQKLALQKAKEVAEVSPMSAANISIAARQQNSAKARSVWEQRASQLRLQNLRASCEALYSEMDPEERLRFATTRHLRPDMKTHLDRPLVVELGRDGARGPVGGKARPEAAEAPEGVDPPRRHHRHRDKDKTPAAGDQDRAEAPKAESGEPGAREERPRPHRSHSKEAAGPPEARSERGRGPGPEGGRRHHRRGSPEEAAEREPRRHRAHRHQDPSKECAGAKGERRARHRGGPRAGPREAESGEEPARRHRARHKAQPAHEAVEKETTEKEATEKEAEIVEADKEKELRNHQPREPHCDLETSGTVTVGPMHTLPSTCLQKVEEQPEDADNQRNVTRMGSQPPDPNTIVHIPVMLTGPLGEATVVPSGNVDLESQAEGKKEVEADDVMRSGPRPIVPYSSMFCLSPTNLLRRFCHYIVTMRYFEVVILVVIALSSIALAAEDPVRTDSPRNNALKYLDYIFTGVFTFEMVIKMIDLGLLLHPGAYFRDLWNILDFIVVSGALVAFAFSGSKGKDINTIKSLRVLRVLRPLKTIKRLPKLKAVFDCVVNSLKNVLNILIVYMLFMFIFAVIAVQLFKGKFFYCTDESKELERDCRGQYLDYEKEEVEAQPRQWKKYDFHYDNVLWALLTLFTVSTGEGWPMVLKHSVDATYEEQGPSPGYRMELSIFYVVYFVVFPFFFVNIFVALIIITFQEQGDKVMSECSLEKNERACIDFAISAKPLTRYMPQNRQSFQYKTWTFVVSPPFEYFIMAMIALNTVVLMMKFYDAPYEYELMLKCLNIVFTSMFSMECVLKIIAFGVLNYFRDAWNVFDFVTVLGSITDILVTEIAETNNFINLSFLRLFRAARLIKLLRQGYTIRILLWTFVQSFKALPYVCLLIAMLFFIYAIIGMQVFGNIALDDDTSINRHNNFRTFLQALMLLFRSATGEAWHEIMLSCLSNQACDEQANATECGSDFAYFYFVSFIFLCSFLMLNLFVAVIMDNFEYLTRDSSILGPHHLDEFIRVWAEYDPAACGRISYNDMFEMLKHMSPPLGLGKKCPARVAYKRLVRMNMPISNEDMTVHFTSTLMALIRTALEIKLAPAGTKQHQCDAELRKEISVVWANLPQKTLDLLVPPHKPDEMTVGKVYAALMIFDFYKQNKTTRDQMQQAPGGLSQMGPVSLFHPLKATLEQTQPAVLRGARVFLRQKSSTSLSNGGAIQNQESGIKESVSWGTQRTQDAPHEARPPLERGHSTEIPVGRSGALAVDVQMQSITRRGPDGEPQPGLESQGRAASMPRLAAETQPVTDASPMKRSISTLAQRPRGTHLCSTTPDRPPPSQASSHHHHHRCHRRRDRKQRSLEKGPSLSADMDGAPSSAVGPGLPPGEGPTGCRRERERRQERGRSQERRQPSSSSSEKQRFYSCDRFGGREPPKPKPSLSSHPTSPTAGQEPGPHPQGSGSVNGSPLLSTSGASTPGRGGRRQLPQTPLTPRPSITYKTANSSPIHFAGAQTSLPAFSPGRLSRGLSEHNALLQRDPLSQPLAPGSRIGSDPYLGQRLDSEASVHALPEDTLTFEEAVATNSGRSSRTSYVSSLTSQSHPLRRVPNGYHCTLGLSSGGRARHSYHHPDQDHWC
T1 sequence (P54284 whole entry partner): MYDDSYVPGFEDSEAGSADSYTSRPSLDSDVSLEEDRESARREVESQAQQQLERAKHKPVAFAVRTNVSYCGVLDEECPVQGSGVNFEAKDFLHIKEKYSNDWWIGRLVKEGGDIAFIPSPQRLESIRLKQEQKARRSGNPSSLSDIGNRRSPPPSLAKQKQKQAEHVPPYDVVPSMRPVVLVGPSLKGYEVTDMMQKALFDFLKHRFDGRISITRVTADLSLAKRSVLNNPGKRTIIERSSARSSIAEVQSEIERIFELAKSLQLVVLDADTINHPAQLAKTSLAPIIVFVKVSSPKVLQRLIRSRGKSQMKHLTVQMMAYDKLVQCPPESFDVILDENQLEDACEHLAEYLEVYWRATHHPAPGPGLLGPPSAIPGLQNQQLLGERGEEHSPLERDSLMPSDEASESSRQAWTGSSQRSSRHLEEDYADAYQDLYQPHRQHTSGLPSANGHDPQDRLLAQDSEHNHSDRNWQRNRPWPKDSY
T1 sequence (P54289 25-946 partner limits assumed): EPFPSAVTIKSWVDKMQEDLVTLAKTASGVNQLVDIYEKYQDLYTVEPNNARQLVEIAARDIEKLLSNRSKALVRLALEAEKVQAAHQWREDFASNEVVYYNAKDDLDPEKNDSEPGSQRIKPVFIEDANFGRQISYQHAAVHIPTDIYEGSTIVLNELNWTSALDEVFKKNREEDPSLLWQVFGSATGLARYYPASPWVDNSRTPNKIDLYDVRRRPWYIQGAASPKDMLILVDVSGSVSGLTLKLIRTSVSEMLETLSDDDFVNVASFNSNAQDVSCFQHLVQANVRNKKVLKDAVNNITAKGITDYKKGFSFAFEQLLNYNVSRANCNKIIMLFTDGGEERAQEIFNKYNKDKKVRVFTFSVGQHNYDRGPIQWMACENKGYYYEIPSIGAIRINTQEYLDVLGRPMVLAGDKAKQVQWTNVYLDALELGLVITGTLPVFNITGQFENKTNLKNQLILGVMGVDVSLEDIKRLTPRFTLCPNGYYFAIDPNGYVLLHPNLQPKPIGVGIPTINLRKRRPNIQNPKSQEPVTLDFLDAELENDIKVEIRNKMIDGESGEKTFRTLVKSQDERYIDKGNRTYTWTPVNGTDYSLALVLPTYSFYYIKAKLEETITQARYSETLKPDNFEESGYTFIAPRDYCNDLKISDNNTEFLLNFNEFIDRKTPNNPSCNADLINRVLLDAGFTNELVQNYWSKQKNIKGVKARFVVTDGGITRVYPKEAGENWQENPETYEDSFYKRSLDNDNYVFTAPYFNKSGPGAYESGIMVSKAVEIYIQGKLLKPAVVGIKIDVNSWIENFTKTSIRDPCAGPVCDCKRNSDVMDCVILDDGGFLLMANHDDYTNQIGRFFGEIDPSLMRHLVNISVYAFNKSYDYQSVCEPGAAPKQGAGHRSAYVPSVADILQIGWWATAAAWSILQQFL
T1 sequence (P54289 947-1103 partner limits assumed): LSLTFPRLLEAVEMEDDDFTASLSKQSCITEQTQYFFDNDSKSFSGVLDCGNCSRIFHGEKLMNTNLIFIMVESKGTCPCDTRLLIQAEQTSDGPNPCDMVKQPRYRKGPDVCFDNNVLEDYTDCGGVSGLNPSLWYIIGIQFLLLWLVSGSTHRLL

| Structure (SMILES) | IC50 [µM] |
| --- | --- |
| CCCS(=O)(=O)N1CCN(Cc2nnnn2-c2ccc(Cl)cc2)CC1 [Compound 23, 1-{[1-(4-Chlorophenyl)-1H-tetrazol-5-yl]methyl}-4-(propylsulfonyl)piperazine] | ≤ 31.6 |
| C[C@@H]1CN(S(C)(=O)=O)C[C@H](C)N1Cc1nnnn1-c1ccc(C#N)c(C(F)(F)F)c1 [Compound 107, 4-(5-{[cis-2,6-Dimethyl-4-(methylsulfonyl)-1-piperazinyl]methyl}-1H-tetrazol-1-yl)-2-(trifluoromethyl)benzonitrile] | ≤ 3.16 |
| FC(F)(F)c1cccc(-n2nnnc2CNC2CCCCC2)c1 [Compound 65, N-({1-[3-(Trifluoromethyl)phenyl]-1H-tetrazol-5-yl}methyl)cyclohexanamine hydrochloride] | ≤ 31.6 |
| FCC12CCCN1CCN(Cc1nnnn1-c1ccc(C(F)(F)F)cc1)C2 (centres unmarked) [Compound 77, 8a-(Fluoromethyl)-2-({1-[4-(trifluoromethyl)phenyl]-1H-tetrazol-5-yl}methyl)octahydropyrrolo[1,2-a]pyrazine] | ≤ 31.6 |
| CC(C)N1CCN(Cc2nnnn2-c2ccc(C(F)(F)F)cc2)[C@H](C)C1=O [Compound 90, (3R)-3-Methyl-1-(1-methylethyl)-4-({1-[4-(trifluoromethyl)phenyl]-1H-tetrazol-5-yl}methyl)-2-piperazinone] | ≤ 10 |
| Clc1ccc(-n2nnnc2CN2CCOCC2)cc1Cl [Compound 21, 4-{[1-(3,4-Dichlorophenyl)-1H-tetrazol-5-yl]methyl}morpholine] | ≤ 10 |
| CC(C)C(=O)N1CCN(Cc2nnnn2-c2ccc(C#N)c(C(F)(F)F)c2)CC1 [Compound 146, 4-(5-{[4-(2-methylpropanoyl)-1-piperazinyl]methyl}-1H-tetrazol-1-yl)-2-(trifluoromethyl)benzonitrile] | ≤ 3.16 |
| CC(=O)N1CCN(Cc2nnnn2-c2ccc(C#N)c(C(F)(F)F)c2)CC1 [Compound 102, 4-{5-[(4-acetyl-1-piperazinyl)methyl]-1H-tetrazol-1-yl}-2-(trifluoromethyl)benzonitrile] | ≤ 3.16 |
| Cc1c(-n2nnnc2CN2C[C@@H]3C[C@H]2CO3)ccc(C#N)c1C(F)(F)F [Compound 129, 3-methyl-4-{5-[(1S,4S)-2-oxa-5-azabicyclo[2.2.1]hept-5-ylmethyl]-1H-tetrazol-1-yl}-2-(trifluoromethyl)bbenzonitrile hydrochloride] | ≤ 31.6 |
| CC(C)S(=O)(=O)N1CCN(Cc2nnnn2-c2ccc(C#N)c(C(F)(F)F)c2)CC1 [Compound 122, 4-[5-({4-[(1-methylethyl)sulfonyl]-1-piperazinyl}methyl)-1H-tetrazol-1-yl]-2-(trifluoromethyl)benzonitrile] | ≤ 3.16 |
| CS(=O)(=O)N1CCN(Cc2nnnn2-c2ccc(C(F)(F)F)cc2)CC1 [Compound 71, 1-(Methylsulfonyl)-4-({1-[4-(trifluoromethyl)phenyl]-1H-tetrazol-5-yl}methyl)piperazine] | ≤ 3.16 |
| CCCS(=O)(=O)N1CCN(Cc2nnnn2-c2ccc(C#N)c(C(F)(F)F)c2)CC1 [Compound 106, 4-(5-{[4-(Propylsulfonyl)-1-piperazinyl]methyl}-1H-tetrazol-1-yl)-2-(trifluoromethyl)benzonitrile] | ≤ 3.16 |
| C[C@@H]1CN(Cc2nnnn2-c2ccc(C#N)c(C(F)(F)F)c2)C[C@H](C)O1 [Compound 30, 4-(5-{[cis-2,6-Dimethyl-4-morpholinyl]methyl}-1 H-tetrazol-1-yl)-2-(trifluoromethyl)benzonitrile] | ≤ 10 |
| N#Cc1ccc(-n2nnnc2CN2CCNCC2)cc1C(F)(F)F [Compound 101, 4-[5-(1-piperazinylmethyl)-1H-tetrazol-1-yl]-2-(trifluoromethyl)benzonitrile] | ≤ 10 |
| O=S1(=O)CCC2CN(Cc3nnnn3-c3ccc(C(F)(F)F)cc3)CCN21 (centres unmarked) [Compound 78, 5-({1-[4-(Trifluoromethyl)phenyl]-1H-tetrazol-5-yl}methyl)hexahydro-2H-isothiazole[2,3-a]pyrazine 1,1-dioxide] | ≤ 31.6 |
| C[C@@H]1CN(Cc2nnnn2-c2ccc(Cl)cc2)C[C@H](C)O1 [Compound 13, (cis)-4-{[1-(4-Chlorophenyl)-1H-tetrazol-5-yl]methyl}-2,6-dimethylmorpholine] | ≤ 31.6 |
| N#Cc1ccc(-n2nnnc2CN2[C@@H]3CC[C@H]2COC3)cc1C(F)(F)F [Compound 103, 4-[5-(3-oxa-8-azabicyclo[3.2.1]oct-8-ylmethyl)-1H-tetrazol-1-yl]-2-(trifluoromethyl)benzonitrile hydrochloride] | ≤ 10 |
| CN1CCN(Cc2nnnn2-c2cccc(C(F)(F)F)c2)CC1(C)C [Compound 45, 1,2,2-Trimethyl-4-({1-[3-(trifluoromethyl)phenyl]-1H-tetrazol-5-yl}methyl)piperazine hydrochloride] | ≤ 31.6 |
| FS(F)(F)(F)(F)c1ccc(-n2nnnc2CN2C[C@@H]3C[C@H]2CO3)cc1 [Compound 127, (1S,4S)-5-({1-[4-(pentafluoro-λ^6-sulfanyl)phenyl]-1H-tetrazol-5-yl}methyl)-2-oxa-5-azabicyclo[2.2.1]heptane] | ≤ 31.6 |

Further lines, results first:

| IC50 [µM] | Structure (SMILES) |
| --- | --- |
| ≤ 31.6 | C[C@@H]1COCCN1Cc1nnnn1-c1ccc(C(F)(F)F)cn1 [Compound 42, (3R)-3-Methyl-4-({1-[5-(trifluoromethyl)-2-pyridinyl]-1H-tetrazol-5-yl}methyl)morpholine] |
| ≤ 10 | C[C@H]1COCCN1Cc1nnnn1-c1ccc(C(F)(F)F)cc1 [Compound 39, (3S)-3-Methyl-4-({1-[4-(trifluoromethyl)phenyl]-1H-tetrazol-5-yl}methyl)morpholine hydrochloride] |
| ≤ 31.6 | CN1C[C@@H]2C[C@H]1CN2Cc1nnnn1-c1ccc(C(F)(F)F)cc1 [Compound 98, (1S,4S)-2-Methyl-5-({1-[4-(trifluoromethyl)phenyl]-1H-tetrazol-5-yl}methyl)-2,5-diazabicyclo[2.2.1]heptane hydrochloride] |
| ≤ 3.16 | C[C@@H]1COCCN1Cc1nnnn1-c1ccc(C(F)(F)F)cc1 [Compound 28, (3R)-3-Methyl-4-({1-[4-(trifluoromethyl)phenyl]-1H-tetrazol-5-yl}methyl)morpholine hydrochloride] |
| ≤ 31.6 | C[C@@H]1COC[C@H](C)N1Cc1nnnn1-c1cccc(C(F)(F)F)c1 [Compound 64, (cis)-3,5-dimethyl-4-({1-[3-(Trifluoromethyl)phenyl]-1H-tetrazol-5-yl}methyl)morpholine hydrochloride] |
| 63.1 | CC1C(=O)N(C)CCN1Cc1nnnn1-c1cccc(C(F)(F)F)c1 (centres unmarked) [Compound 33, 1,3-Dimethyl-4-({1-[3-(trifluoromethyl)phenyl]-1H-tetrazol-5-yl}methyl)-2-piperazinone] |
| ≤ 31.6 | FC(F)(F)c1cccc(-n2nnnc2CN2CCOCC2)c1 [Compound 19, 4-({1-[3-(Trifluoromethyl)phenyl]-1H-tetrazol-5-yl}methyl)morpholine] |
| ≤ 3.16 | C[C@@H]1COCCN1Cc1nnnn1-c1cccc(C(F)(F)F)c1 [Compound 25, (3R)-3-Methyl-4-({1-[3-(trifluoromethyl)phenyl]-1H-tetrazol-5-yl}methyl)morpholine hydrochloride] |
| ≤ 10 | CC1(C)COCCN1Cc1nnnn1-c1cccc(C(F)(F)F)c1 [Compound 29, 3,3-Dimethyl-4-({1-[3-(trifluoromethyl)phenyl]-1H-tetrazol-5-yl}methyl)morpholine] |
| ≤ 10 | C[C@@H]1C(=O)N(C)CCN1Cc1nnnn1-c1ccc(C(F)(F)F)cc1 [Compound 89, (3R)-1,3-Dimethyl-4-({1-[4-(trifluoromethyl)phenyl]-1H-tetrazol-5-yl}methyl)-2-piperazinone[]] |

Reference: patent US9750719B2, “Tetrazole compounds as calcium channel blockers” (CONVERGENCE PHARMACEUTICALS LIMITED, priority 2010, dated 2017)
